From BindingDB's records for patent US11225492 (Hangzhou Innogate Pharma Co., Ltd., 2022)

Target: Cyclin-dependent kinase 6 (Homo sapiens, UniProt Q00534)
Assay: Kinase Assay
Procedure: CDK2/CycA2 and CDK6/cycD3 were assayed under buffer conditions in the presence of 50 mM HEPES (pH 7.5), 10 mM MgCl2, 0.0015% Brij-35, and 2 mM dithiothreitol, CDK4/CycD3 with buffer condition of 20 mM HEPES (pH 7.5), 10 mM MgCl2, 0.01% Triton X-100, and 2 mM dithiothreitol. Prepare compounds to 50× of the final desired highest inhibitor concentration by 100% DMSO and serial dilution in 3-fold for total of 10 concentrations. […] After assay for 60 min, 180 min, 60 min respectively at 28° C., reactions were terminated with stop solution (50 mM EDTA, 0.015% Brij-35, 0.2% Coating Reagent #3 and 100 mM HEPES (pH 7.5)). Collect conversion on Caliper EZ Reader.

Cyclin-dependent kinase 6, sequence (Q00534 whole entry): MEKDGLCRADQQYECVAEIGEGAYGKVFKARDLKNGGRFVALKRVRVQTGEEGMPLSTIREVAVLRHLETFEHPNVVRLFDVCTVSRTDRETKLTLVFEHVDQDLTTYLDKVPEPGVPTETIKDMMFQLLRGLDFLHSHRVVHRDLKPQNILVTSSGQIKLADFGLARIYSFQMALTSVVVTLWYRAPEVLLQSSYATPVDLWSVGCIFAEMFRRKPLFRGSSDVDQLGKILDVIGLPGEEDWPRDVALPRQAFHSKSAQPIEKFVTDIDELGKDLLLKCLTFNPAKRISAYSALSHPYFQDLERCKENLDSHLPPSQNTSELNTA

IC50, < 25 nM:
CC(=O)c1c(C)c2cnc(Nc3ccc4c(c3)OCC3CNCCN43)nc2n(C2CCCC2)c1=O (racemic) [US11225492, Compound 7]
CC(=O)c1c(C)c2cnc(Nc3ccc4c(c3)OC[C@H]3CNCCN43)nc2n(C2CCCC2)c1=O [US11225492, Compound 7R]
CC(=O)c1c(C)c2cnc(Nc3ccc4c(c3)OC[C@@H]3CNCCN43)nc2n(C2CCCC2)c1=O [US11225492, Compound 7S]
